Results reported in ChEMBL document CHEMBL1154404 (Antimicrob Agents Chemother, 2007).

What was measured:
[1] = Half life in fatty-liver cirrhosis patient treated at 2 mg, po twice a day for 30 days measured after 2 days of last dose; assay type: ADME, organism-based; settings: human, in vivo
[2] = Half life in healthy human at 2 mg, po twice a day for 30 days measured after 2 days of last dose; assay type: ADME, organism-based; settings: in vivo
[3] = Plasma concentration in fatty-liver cirrhosis patient plasma treated at 2 mg, po twice a day for 30 days measured after 15 hrs of last dose; assay type: ADME, organism-based; settings: human
[4] = tested on: Homo sapiens; experiment: Volume of distribution in healthy human at 2 mg, po twice a day for 30 days measured after 2 days of last dose; assay type: ADME, organism-based; settings: in vivo, 48 h
[5] = tested on: Homo sapiens; experiment: Volume of distribution in fatty-liver cirrhosis patient treated at 2 mg, po twice a day for 30 days measured after 2 days of last dose; assay type: ADME, organism-based; settings: in vivo, 48 h
[6] = Plasma concentration in fatty-liver cirrhosis patient plasma treated at 2 mg, po twice a day for 30 days measured after 2 days of last dose; assay type: ADME, organism-based; settings: human
[7] = tested on: Plasma; experiment: Drug level in patient plasma; assay type: ADME, cell-free; settings: human
[8] = species: Homo sapiens; experiment: Drug elimination in healthy human assessed as cytochrome-dependent hepatic metabolism-mediated kidney elimination; assay type: ADME, organism-based; settings: in vivo
[9] = Plasma concentration in fatty-liver cirrhosis patient treated at 2 mg, po twice a day for 30 days measured after 11 days of last dose; assay type: ADME, organism-based; settings: human
[10] = species: Homo sapiens; experiment: Drug elimination in healthy human assessed as cytochrome-dependent hepatic metabolism-mediated biliary elimination; assay type: ADME, organism-based; settings: in vivo

## C[C@@H](c1ncncc1F)[C@](O)(Cn1cncn1)c1ccc(F)cc1F [VORICONAZOLE]
[1]
  half-life: 53.1 h
[2]
  half-life: 4.7 h
[3]
  concentration at 15 h: 13.9 µg/mL
[4]
  Vd: 2.04 L/kg
[5]
  Vd: 0.13 L/kg
[6]
  concentration at 48 h: 10 µg/mL
[7]
  Drug uptake: > 2.05 µg/mL
[8]
  Activity: 80%
[9]
  concentration at 264 h: 0.66 µg/mL
[10]
  Activity: 20%
